According to EP1964834A1, “Sulphonyltryptophanols” (Bayer Schering Pharma Aktiengesellschaft, priority 2007, dated 2008):

Biological target: T1, human FSH receptor (Homo sapiens, UniProt P23945)
T1 construct: expressed in transfected cells; host or cells: CHO cells (hFSHR clone 16)
T1 sequence (P23945 18-695): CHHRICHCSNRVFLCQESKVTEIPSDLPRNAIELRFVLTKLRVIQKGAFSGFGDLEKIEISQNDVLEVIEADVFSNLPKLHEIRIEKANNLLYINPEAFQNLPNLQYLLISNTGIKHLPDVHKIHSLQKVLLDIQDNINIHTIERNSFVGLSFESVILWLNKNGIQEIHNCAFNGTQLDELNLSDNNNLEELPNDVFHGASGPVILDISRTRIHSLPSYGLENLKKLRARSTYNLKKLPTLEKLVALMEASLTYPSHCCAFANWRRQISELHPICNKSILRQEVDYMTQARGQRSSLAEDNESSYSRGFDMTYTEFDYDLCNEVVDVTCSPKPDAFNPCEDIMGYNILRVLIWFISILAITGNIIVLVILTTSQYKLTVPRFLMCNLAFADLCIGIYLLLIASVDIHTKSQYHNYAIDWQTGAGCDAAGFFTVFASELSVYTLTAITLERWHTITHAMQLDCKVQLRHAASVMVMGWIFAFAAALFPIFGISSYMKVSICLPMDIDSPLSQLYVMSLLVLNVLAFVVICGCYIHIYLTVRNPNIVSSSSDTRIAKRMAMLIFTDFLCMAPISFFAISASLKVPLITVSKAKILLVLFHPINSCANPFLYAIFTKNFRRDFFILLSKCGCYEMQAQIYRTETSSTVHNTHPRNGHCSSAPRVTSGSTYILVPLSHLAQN
Assay: HTRF assay for measuring cAMP in cells (FSH antagonism)
Type: cell-based
Conditions: FSH antagonistic effect; hFSHR clone 16 cells (CHO cells stably transfected with the human FSH receptor); in the presence of 1 e-9 mol/I hFSH; 37°C for 2h
Description: HTRF assay for measuring cAMP in cells
The method is based on a competitive immunoassay between native cAMP, which has been produced by the cells, and cAMP which is labelled with cAMPD2 conjugate. The tracer binding was visualized by a monoclonal antibody, anti-cAMP labelled with cryptate [HTRF = homogeneous time-resolved fluorescence]. The specific signal is inversely proportional to the cAMP concentration of the samples employed. The 665nm/ 620nm fluorescence ratio was evaluated.
The following material was used: 96-well plates for the tissue culture, 96-well plates with black edge and black base (e.g. Fluotrac 600 from Greiner), 96-well plates for the substance dilutions of polypropylene and cAMP Femtomolar (4000wells Kit, CIS Bio International # 62AM5PEJ). The following reagents were used: BSA (bovine serum albumin) Fraction V protease-free, IBMX (3-isobutyl-1-methylxanthine), hFSH (human follicle stimulating hormone), Triton X-100 analytical grade, potassium fluoride analytical grade, G 418 (Geneticin) and Accutase. • Buffer 1 (washing and testing buffer) contained PBS, 1 mM CaCl2, 1 mM MgCl2, 0.2% glucose; 0.1% BSA, 1 mM IBMX. • Buffer 2 (2x lysis buffer) contained 1% Triton X-100 in PBS (without CaCl2 and MgCl2). • Buffer 3 (assay buffer) contained 50 mM potassium phosphate buffer (pH 7.0); 800 mM potassium fluoride; 0.2% BSA (always added fresh).
On day 1, the cells were seeded in 96-well plates (3x10^4 cells per well hFSHR clone 16 cells (CHO cells stably transfected with the human FSH receptor in 150 µl of medium). The next day, test substance dilutions were made up. For this purpose, all the substances were diluted in ice-cold buffer 1 (with or without hFSH), and the substance dilutions were placed on ice until applied to the cells.
The cell supernatant was then aspirated off, and the cells were washed 2x with 200 µl of buffer 1. The cells were treated with 60 µl of the appropriate substance concentrations at 37°C for 2h. The cells were then lysed with 60 µl of buffer 2 (put onto the supernatant) (on a plate shaker at RT for 30 min).
The test conjugates (cAMP-D2 and anti-cAMP cryptate, CIS Bio) were diluted in buffer 3 in accordance with the manufacturers' information. The actual mixture for measurement was pipetted into a black 96-well plate (in each case 15 µl of the cell lysate diluted with 35 µl of buffer 1; firstly 25 µl of cAMP-D2 conjugate were pipetted and, after 10 min, 25 µl of the anti-cAMP cryptate were added). This is followed by incubation at RT for 90 minutes. The measurement was carried out in a PheraStar (BMG).
1) hFSHr clone 16 Ham's F12 PSG 10% FCS 700 µg/ml G 418 (Geneticin) from PAA.
Dose-effect curve (hFSH) for the human receptor: 1e-8, 3e-9, 1e-9, 3e-10, 1e-10, 3e-11, 1e-11, 3e-12 mol/l.
The test substances were employed in suitable dilutions in the absence (test for agonism) and in the presence of 1 e-9 mol/I hFSH.
The values of the well ratio were averaged and then entered directly in SigmaPlot versus the concentrations. The maximum and minimum values were determined for each plate, and half the difference is to be regarded as IC50.

Compound | IC50 [µM]
COc1ccc(-c2cc(OC)c(OC)c(OC)c2)cc1S(=O)(=O)N[C@@H](CO)Cc1c[nH]c2ccccc12 [Example 1, 4,3',4',5'-Tetramethoxy-biphenyl-3-sulfonic acid [(R)-2-hydroxy-1-(1H-indol-3-ylmethyl)-ethyl]-amide] | 3.5
CNC(=O)c1ccc(-c2ccc(OC)c(S(=O)(=O)N[C@@H](CO)Cc3c[nH]c4ccccc34)c2)cc1Cl [Example 3, 3-Chloro-3'-[(R)-2-hydroxy-1-(1H-indol-3-ylmethyl)-ethylsulfamoyl]-4'-methoxybiphenyl-4-carboxylic acid me-thylamide] | 4
CNC(=O)c1ccc(-c2ccc(OC(C)C)c(S(=O)(=O)N[C@@H](CO)Cc3c[nH]c4ccccc34)c2)cc1Cl [Example 9, 3-Chloro-3'-[(R)-2-hydroxy-1-(1H-indol-3-ylmethyl)-ethylsulfamoyl]-4'-isopropoxybiphenyl-4-carboxylic acid methylamide] | 0.18
CNC(=O)c1ccc(C#Cc2ccc(OC)c(S(=O)(=O)N[C@@H](CO)Cc3c[nH]c4ccccc34)c2)cc1 [Example 18, 4-{3-[(R)-2-Hydroxy-1-(1H-indol-3-ylmethyl)-ethylsulfamoyl]-4-methoxyphenylethynyl}-N-methyl-benzamide] | 2.5
CNC(=O)c1ccc(C#Cc2ccc(OC)c(S(=O)(=O)N[C@H](Cc3c[nH]c4ccccc34)C(C)(C)O)c2)cc1 [Example 22, 4-{3-[(R)-2-Hydroxy-1-(1H-indol-3-ylmethyl)-2-methyl-propyisulfamoyl]-4-methoxyphenylethynyl}-N-methyl-benzamide] | 3.5
